In brackets after ≈: the same amount, converted by molar mass.
Tested on: IL-17A expression
Experiment: IL-17A inhibition assay in IL-17 luciferase-(LUCPorter) stable reporter cell line
Settings: for Inhibition of IL-17A expression (%) Experiment-1 / Inhibition of IL-17A expression (%) Experiment-2 / Inhibition of IL-17A expression (%) Experiment-3: 6 hours; for expression of IL-17A (luciferase units): control group 2,582 units; for inhibition at 10 µg/mL / inhibition at 100 µg/mL / inhibition at 1000 µg/mL / IC50: Homo sapiens; for inhibition at 10 µg/mL / inhibition at 100 µg/mL / inhibition at 1000 µg/mL: read-out: Average Inhibition (%); for IC50: read-out: IC50 to inhibit the IL-17A expression by 50%

Row | SMILES | expression of IL-17A, % by the control (10 μg/ml) | Inhibition of IL-17A expression (%) Experiment-1 (10 μg/ml) | Inhibition of IL-17A expression (%) Experiment-2 (10 μg/ml) | Inhibition of IL-17A expression (%) Experiment-3 (10 μg/ml) | expression of IL-17A (luciferase units) (10 μg/ml) | expression of IL-17A, % by the control (100 μg/ml) | Inhibition of IL-17A expression (%) Experiment-1 (100 μg/ml) | Inhibition of IL-17A expression (%) Experiment-2 (100 μg/ml) | Inhibition of IL-17A expression (%) Experiment-3 (100 μg/ml) | expression of IL-17A (luciferase units) (100 μg/ml) | expression of IL-17A, % by the control (1,000 μg/ml) | Inhibition of IL-17A expression (%) Experiment-1 (1000 μg/ml) | Inhibition of IL-17A expression (%) Experiment-2 (1000 μg/ml) | Inhibition of IL-17A expression (%) Experiment-3 (1000 μg/ml) | expression of IL-17A (luciferase units) (1,000 μg/ml) | inhibition at 10 µg/mL | inhibition at 100 µg/mL | inhibition at 1000 µg/mL | IC50
1 | C[C@@H]1CC[C@H]2C(C)(C)[C@H]3C[C@@]12CC1OC13C (stereo partly drawn) [cedrene epoxide, Cedrene epoxide] | 100 % by the control | 11% | 4% | 0% | 2,591±458 units | 88 % by the control | 14% | 16% | 12% | 2,267±806 units | 54 % by the control | 60% | 56% | 46% | 1,382±87 units | 5% | 14% | 54% | 942 µg/mL (≈ 4.27 mM)
2 | CO[C@]1(C)CC[C@@]23C[C@@H]1C(C)(C)[C@@H]2CC[C@H]3C [methyl cedryl ether, Methyl cedryl ether] | 96 % by the control | −6% | 4% | 4% | 2,479±136 units | 92 % by the control | −5% | 5% | 8% | 2,379±206 units | 74 % by the control | 48% | 18% | 26% | 1,921±239 units | 0.7% | 2.7% | 30.7% | 1130 µg/mL (≈ 4.78 mM)
3 | CC(=O)C1=C(C)[C@@H]2C[C@@]3(C1)[C@H](C)CC[C@H]3C2(C)C [methyl cedryl ketone, Methyl cedryl ketone] | 87 % by the control | 0% | 1% | 13% | 2,248±194 units | 75 % by the control | 12% | 15% | 25% | 1,930±111 units | 34 % by the control | 78% | 58% | 66% | 866±106 units | 4.7% | 17.3% | 67.3% | 841 µg/mL (≈ 3.41 mM)
